Results: patent US10508085B2, “Compounds and methods for IDO and TDO modulation, and indications therefor” (Plexxikon Inc., priority 2016, dated 2019)

Legend:
[1] = target: T1, Human Indoleamine 2,3-dioxygenase (IDO) (Homo sapiens, UniProt P14902); test: Human IDO enzymatic assay (kynurenine level); assay type: biochemical; conditions: 6 nM IDO, 10 μM L-Trp; geometric mean; read-out: IDO1 GMean: IC50 (μM) (Biochemical Assay)
T1 construct: His tag (N); made in house; host or cells: E. coli
Method in brief: (§1)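 Kynurenine formed is measured after TCA quench and 50 °C hydrolysis, with % inhibition against full-reaction and no-enzyme controls (5% DMSO). IDO: 6 nM enzyme, 10 μM L-Trp, 5 μM methylene blue, 20 min; TDO: 1 nM, 350 μM L-Trp, 0.4 μM methylene blue, 70 min; both pH 6.5, room temp, E. coli-expressed His-tagged.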

[2] = target: T2, Human Tryptophan 2,3-dioxygenase (TDO) (Homo sapiens, UniProt P48775); test: Human TDO enzymatic assay (kynurenine level); assay type: biochemical; conditions: 1 nM TDO, 350 μM L-Trp; geometric mean; read-out: TDO GMean: IC50 (μM) (Biochemical Assay)
T2 construct: His tag (N); made in house; host or cells: E. coli
T2 sequence (P48775 whole entry): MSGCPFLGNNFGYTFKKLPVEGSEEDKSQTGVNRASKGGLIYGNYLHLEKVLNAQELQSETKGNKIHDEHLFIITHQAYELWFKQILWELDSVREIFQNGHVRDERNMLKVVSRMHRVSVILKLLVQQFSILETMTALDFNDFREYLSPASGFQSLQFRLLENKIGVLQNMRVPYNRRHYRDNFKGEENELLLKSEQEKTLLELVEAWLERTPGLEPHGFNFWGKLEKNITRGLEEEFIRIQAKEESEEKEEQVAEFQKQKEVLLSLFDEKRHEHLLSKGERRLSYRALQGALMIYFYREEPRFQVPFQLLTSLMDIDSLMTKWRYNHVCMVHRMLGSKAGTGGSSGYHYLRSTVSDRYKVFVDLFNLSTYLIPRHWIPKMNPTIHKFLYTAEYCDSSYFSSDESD
Method in brief: as §1

[3] = target: T3, human IDO (IDO1-expressing HEK293 cells) (Homo sapiens, UniProt P14902); test: Cell based kynurenine assay, IDO1-expressing HEK293 cell clones; conditions: IDO1-expressing HEK293 cells, 24 hours, geometric mean; read-out: HEK293 IDO1 Kynurenine GMean IC50 (μM) (Cellular Assay)
T3 construct: expressed in transfected cells
T3 sequence (P14902 whole entry): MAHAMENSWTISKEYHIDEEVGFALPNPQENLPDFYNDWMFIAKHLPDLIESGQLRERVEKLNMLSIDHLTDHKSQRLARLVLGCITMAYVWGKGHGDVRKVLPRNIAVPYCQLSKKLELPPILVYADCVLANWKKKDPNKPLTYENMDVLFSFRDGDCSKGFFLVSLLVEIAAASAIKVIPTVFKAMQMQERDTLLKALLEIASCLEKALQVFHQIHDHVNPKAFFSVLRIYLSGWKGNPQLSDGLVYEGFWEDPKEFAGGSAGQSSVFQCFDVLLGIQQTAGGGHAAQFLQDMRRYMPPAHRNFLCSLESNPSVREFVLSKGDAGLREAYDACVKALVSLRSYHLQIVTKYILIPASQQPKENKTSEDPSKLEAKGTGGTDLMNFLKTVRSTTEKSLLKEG
Method in brief: (§2)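 Steps: seed IDO1- or TDO-expressing HEK293 cells at 2.5×10^4 per well; add compound dilutions; incubate 24 h; transfer supernatant and determine kynurenine; derive IC50 via nonlinear regression of percent inhibition.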

[4] = target: T4, human TDO (TDO-expressing HEK293 cells) (Homo sapiens, UniProt P48775); test: Cell based kynurenine assay, TDO-expressing HEK293 cell clones; conditions: TDO-expressing HEK293 cells, 24 hours, geometric mean; read-out: HEK293 TDO Kynurenine GMean IC50 (μM) (Cellular Assay)
T4 construct: expressed in transfected cells
T4 sequence (P48775 whole entry): as the sequence (P48775 whole entry) above
Method in brief: as §2

T1 sequence (P14902 whole entry): as the sequence (P14902 whole entry) above

Compound | IC50 [1] [µM] | IC50 [2] [µM] | IC50 [3] [µM] | IC50 [4] [µM]
CNC(=O)N1[C@@H]2CC[C@H]1C[C@@H](C(C)(C)C(O)c1cc(Cl)cc3cn[nH]c13)C2 (stereo partly drawn) [Compound P-0442, (1R,3r,5S)-3-(1-(5-chloro-1H-indazol-7-yl)-1-hydroxy-2-methylpropan-2-yl)-N-methyl-8-azabicyclo[3.2.1] octane-8-carboxamide] | 0.0001 to 10 | 0.0001 to 10 | 0.0001 to 10 | 0.0001 to 10
CC(C)(C1CCN(C(=O)CC2CCOCC2)CC1)C(O)c1cc(Cl)cc2cn[nH]c12 (stereo not shown) [Compound P-0443, 1-(4-(1-(5-chloro-1H-indazol-7-yl)-1-hydroxy-2-methylpropan-2-yl)piperidin-1-yl)-2-(tetrahydro-2H-pyran-4-yl)ethan-1-one] | 0.0001 to 10 | 0.0001 to 10 | 0.0001 to 10 | 0.0001 to 10
COCCNC(=O)N1CCC(C(C)(C)[C@H](O)c2cc(Cl)cc3cn[nH]c23)CC1 [Compound P-0446, (S)-4-(1-(5-chloro-1H-indazol-7-yl)-1-hydroxy-2-methylpropan-2-yl)-N-(2-methoxyethyl) piperidine-1-carboxamide] | 0.0001 to 10 | 0.0001 to 10 | 0.0001 to 10 | 0.0001 to 10
CC(C)(C1CCN(C(=O)Nc2ccc(C#N)cc2)CC1)[C@H](O)c1cc(Cl)cc2cn[nH]c12 [Compound P-0447, (S)-4-(1-(5-chloro-1H-indazol-7-yl)-1-hydroxy-2-methylpropan-2-yl)-N-(4-cyanophenyl) piperidine-1-carboxamide] | 0.0001 to 10 | 0.0001 to 10 | 0.0001 to 10 | 0.0001 to 10
CC(C)(C1CCN(C(=O)CC2CCS(=O)(=O)CC2)CC1)C(O)c1cc(Cl)cc2cn[nH]c12 (stereo not drawn) [Compound P-0448, 1-(4-(1-(5-chloro-1H-indazol-7-yl)-1-hydroxy-2-methylpropan-2-yl)piperidin-l-yl)-2-(1,1-dioxidotetrahydro-2H-thiopyran-4-yl)ethan-1-one] | 0.0001 to 10 | 0.0001 to 10 | 0.0001 to 10 | 0.0001 to 10
CC(C)(C1CCN(C(=O)N[C@H]2CC[C@H](C)CC2)CC1)C(O)c1cc(Cl)cc2cn[nH]c12 (stereo partly shown) [Compound P-0449, 4-(1-(5-chloro-1H-indazol-7-yl)-1-hydroxy-2-methylpropan-2-yl)-N-((1r,4r)-4-methylcyclohexyl) piperidine-1-carboxamide] | 0.0001 to 10 | 0.0001 to 10 | 0.0001 to 10 | 0.0001 to 10
CC(C)(C1CCN(C(=O)NC2CCN(S(C)(=O)=O)CC2)CC1)C(O)c1cc(Cl)cc2cn[nH]c12 (stereo not shown) [Compound P-0450, 4-(1-(5-chloro-1H-indazol-7-yl)-1-hydroxy-2-methylpropan-2-yl)-N-(1-(methylsulfonyl)piperidin-4-yl)piperidine-1-carboxamide] | 0.0001 to 10 | 0.0001 to 10 | 0.0001 to 10 | 0.0001 to 10
CC(C)(C1CCN(C(=O)NC2CCOCC2)CC1)C(O)c1cc(Cl)cc2cn[nH]c12 (stereo not shown) [Compound P-0451, 4-(1-(5-chloro-1H-indazol-7-yl)-1-hydroxy-2-methylpropan-2-yl)-N-(tetrahydro-2H-pyran-4-yl)piperidine-1-carboxamide] | 0.0001 to 10 | 0.0001 to 10 | 0.0001 to 10 | 0.0001 to 10
CC(C)(C1CCN(C(=O)NCCS(C)(=O)=O)CC1)C(O)c1cc(Cl)cc2cn[nH]c12 (stereo not shown) [Compound P-0452, 4-(1-(5-chloro-1H-indazol-7-yl)-1-hydroxy-2-methylpropan-2-yl)-N-(2-(methylsulfonyl)ethyl)piperidine-1-carboxamide] | 0.0001 to 10 | 0.0001 to 10 | 0.0001 to 10 | 0.0001 to 10
CC(C)(C1CCN(C(=O)NC2CCNCC2)CC1)C(O)c1cc(Cl)cc2cn[nH]c12 (stereo not shown) [Compound P-0453, 4-(1-(5-chloro-1H-indazol-7-yl)-1-hydroxy-2-methylpropan-2-yl)-N-(piperidin-4-yl)piperidine-1-carboxamide] | 0.0001 to 10 | 0.0001 to 10 | > 10 | > 10
CC1(C(=O)N2CCC(C(C)(C)C(O)c3cc(Cl)cc4cn[nH]c34)CC2)CC1 (stereo not shown) [Compound P-0457, (4-(1-(5-chloro-1H-indazol-7-yl)-1-hydroxy-2-methylpropan-2-yl)piperidin-1-yl)(1-methylcyclopropyl) methanone] | 0.0001 to 10 | 0.0001 to 10 | 0.0001 to 10 | 0.0001 to 10
CC(C)(C1CCN(C(=O)C2CCOCC2)CC1)C(O)c1cc(Cl)cc2cn[nH]c12 (stereo not shown) [Compound P-0458, (4-(1-(5-chloro-1H-indazol-7-yl)-1-hydroxy-2-methylpropan-2-yl)piperidin-1-yl)(tetrahydro-2H-pyran-4-yl)methanone] | 0.0001 to 10 | 0.0001 to 10 | 0.0001 to 10 | 0.0001 to 10

The next lines start with the values.

IC50 [1] [µM] | IC50 [2] [µM] | IC50 [3] [µM] | IC50 [4] [µM] | Compound
0.0001 to 10 | 0.0001 to 10 | 0.0001 to 10 | 0.0001 to 10 | CCC(=O)N1CCC(C(C)(C)[C@H](O)c2cc(Cl)cc3cn[nH]c23)CC1 [Compound P-0444, (S)-1-(4-(1-(5-chloro-1H-indazol-7-yl)-1-hydroxy-2-methylpropan-2-yl)piperidin-1-yl)propan-l-one]
0.0001 to 10 | 0.0001 to 10 | 0.0001 to 10 | 0.0001 to 10 | CNC(=O)N1CCC(C(C)(C)[C@H](O)c2cc(Cl)cc3cn[nH]c23)CC1 [Compound P-0445, (S)-4-(1-(5-chloro-1H-indazol-7-yl)-1-hydroxy-2-methylpropan-2-yl)-N-methylpiperidine-1-carboxamide]
0.0001 to 10 | 0.0001 to 10 | 0.0001 to 10 | 0.0001 to 10 | CC(C)(C1CCN(C(=O)CC#N)CC1)C(O)c1cc(Cl)cc2cn[nH]c12 (stereo not shown) [Compound P-0454, 3-(4-(1-(5-chloro-1H-indazol-7-yl)-1-hydroxy-2-methylpropan-2-yl)piperidin-1-yl)-3-oxopropanenitrile]
0.0001 to 10 | 0.0001 to 10 | 0.0001 to 10 | 0.0001 to 10 | CN(C)CC(=O)N1CCC(C(C)(C)C(O)c2cc(Cl)cc3cn[nH]c23)CC1 (stereo not shown) [Compound P-0455, 1-(4-(1-(5-chloro-1H-indazol-7-yl)-1-hydroxy-2-methylpropan-2-yl)piperidin-1-yl)-2-(dimethylamino) ethan-1-one]
0.0001 to 10 | 0.0001 to 10 | 0.0001 to 10 | 0.0001 to 10 | CN(C)CCC(=O)N1CCC(C(C)(C)C(O)c2cc(Cl)cc3cn[nH]c23)CC1 (stereo not shown) [Compound P-0456, 1-(4-(1-(5-chloro-1H-indazol-7-yl)-1-hydroxy-2-methylpropan-2-yl)piperidin-1-yl)-3-(dimethylamino) propan-1-one]
0.0001 to 10 | 0.0001 to 10 | 0.0001 to 10 | 0.0001 to 10 | CC(C)(C1CCN(C(=O)CC(F)(F)F)CC1)C(O)c1cc(Cl)cc2cn[nH]c12 (stereo not shown) [Compound P-0459, 1-(4-(1-(5-chloro-1H-indazol-7-yl)-1-hydroxy-2-methylpropan-2-yl)piperidin-1-yl)-3,3,3-trifluoropropan-1-one]
0.0001 to 10 | 0.0001 to 10 | 0.0001 to 10 | 0.0001 to 10 | CCCC(=O)N1CCC(C(C)(C)C(O)c2cc(Cl)cc3cn[nH]c23)CC1 (stereo not shown) [Compound P-0460, 1-(4-(1-(5-chloro-1H-indazol-7-yl)-1-hydroxy-2-methylpropan-2-yl)piperidin-1-yl)butan-1-one]
